Biological target: T1, androgen receptor (Homo sapiens, UniProt P10275, T878A)
T1 construct: 2*10^6 LNCaP cells in 6 ml of RPMI 1640 without phenol red are grown; endogenous in cells; host or cells: LNCaP (human prostate cell line)
T1 sequence (P10275 1-920 T878A): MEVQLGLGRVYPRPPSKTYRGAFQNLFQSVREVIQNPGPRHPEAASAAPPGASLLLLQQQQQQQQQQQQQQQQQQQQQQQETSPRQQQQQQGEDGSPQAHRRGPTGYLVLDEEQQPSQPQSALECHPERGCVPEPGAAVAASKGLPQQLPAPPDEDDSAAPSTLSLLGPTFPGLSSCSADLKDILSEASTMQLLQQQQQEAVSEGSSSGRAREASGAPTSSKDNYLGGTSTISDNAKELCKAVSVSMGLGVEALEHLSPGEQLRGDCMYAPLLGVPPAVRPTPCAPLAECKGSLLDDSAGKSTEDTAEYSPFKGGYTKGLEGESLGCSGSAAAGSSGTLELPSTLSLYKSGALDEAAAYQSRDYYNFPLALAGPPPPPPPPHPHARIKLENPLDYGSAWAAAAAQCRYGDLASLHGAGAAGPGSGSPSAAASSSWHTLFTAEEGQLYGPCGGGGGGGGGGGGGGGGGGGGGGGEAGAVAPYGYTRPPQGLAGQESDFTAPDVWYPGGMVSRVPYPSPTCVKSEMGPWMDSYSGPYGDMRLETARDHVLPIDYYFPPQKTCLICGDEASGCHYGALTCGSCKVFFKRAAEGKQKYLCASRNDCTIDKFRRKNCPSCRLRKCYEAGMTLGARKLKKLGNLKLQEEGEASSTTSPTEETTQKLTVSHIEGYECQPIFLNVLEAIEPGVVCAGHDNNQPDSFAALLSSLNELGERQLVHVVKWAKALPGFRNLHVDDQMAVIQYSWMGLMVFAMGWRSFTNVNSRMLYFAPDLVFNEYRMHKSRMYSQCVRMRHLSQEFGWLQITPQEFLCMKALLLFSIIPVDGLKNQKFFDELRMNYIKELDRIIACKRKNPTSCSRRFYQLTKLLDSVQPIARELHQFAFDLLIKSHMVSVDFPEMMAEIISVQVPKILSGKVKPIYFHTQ
Assay: cell-based
Conditions: LNCaP cells, 10 μM test substance, 48 h; AR/actin as percentage of DMSO control

Row | SMILES | AR Content [%] At 10 μM [%]
1 | CC1=C(CCCCCCN2CCN(S(=O)(=O)c3ccccc3)CC2)C(=O)N(c2ccc(C#N)c(C(F)(F)F)c2)C1=O [Example 295, 4-[2,5-Dihydro-3-methyl-2,5-dioxo-4-[6-[4-(phenylsulfonyl)piperazin-1-yl]hexyl]-1H-pyrrol-1-yl]-2-(trifluoromethyl)benzonitrite] | 48

Same assay, conditions: LNCaP, 48 h, read-out: AR Content [%] At 10 μM

Row | SMILES | remaining activity at 10 µM [%]
2 | CC1=C(CCCCN2CCN(C(=O)C3CCC3)CC2)C(=O)N(c2ccc(C#N)c(C(F)(F)F)c2)C1=O [Example 93, 4-[3-[4-[4-(Cyclobutylcarbonyl)piperazin-1-yl]butyl]-2,5-dihydro-4-methyl-2,5-dioxo-1H-pyrrol-1-yl]-2-(trifluoromethyl)benzonitrile] | 53
3 | CC1=C(CCCCN2CCN(C(=O)c3ccc(N(C)C)cc3)CC2)C(=O)N(c2ccc(C#N)c(C(F)(F)F)c2)C1=O [Example 96, 4-[3-[4-[4-[4-(Dimethylamino)benzoyl]piperazin-1-yl]butyl]-2,5-dihydro-4-methyl-2,5-dioxo-1H-pyrrol-1-yl]-2-(trifluoromethyl)benzonitrile] | 50
4 | CC1=C(CCCCN2CCN(C(=O)c3cccs3)CC2)C(=O)N(c2ccc(C#N)c(C(F)(F)F)c2)C1=O [Example 99, 4-[2,5-Dihydro-3-methyl-2,5-dioxo-4-[4-[4-[(thien-2-yl)-carbonyl]piperazin-1-yl]butyl]-1H-pyrrol-1-yl]-2-(trifluoromethyl)benzonitrile] | 66
5 | CC1=C(CCCCN2CCN(S(=O)(=O)c3ccc(C#N)cc3)CC2)C(=O)N(c2ccc(C#N)c(C(F)(F)F)c2)C1=O [Example 121, 4-[3-[4-[4-[(4-Cyanophenyl)sulfonyl]piperazin-1-yl]butyl]-2,5-dihydro-4-methyl-2,5-dioxo-1H-pyrrol-1-yl]-2-(trifluoromethyl)benzonitrile] | 53
6 | COc1ccc(C(=O)N2CCN(CCCCCC3=C(C)C(=O)N(c4ccc(C#N)c(C(F)(F)F)c4)C3=O)CC2)cc1OC [Example 158, 4-[3-[5-[4-(3,4-Dimethoxybenzoyl)piperazin-1-yl]pentyl]-2,5-dihydro-4-methyl-2,5-dioxo-1H-pyrrol-1-yl]-2-(trifluoromethyl)benzonitrile] | 22
7 | CC1=C(CCCCCN2CCN(S(=O)(=O)c3cccc4nsnc34)CC2)C(=O)N(c2ccc(C#N)c(C(F)(F)F)c2)C1=O [Example 207, 4-[3-[5-[4-[(2,1,3-Benzothiadiazol-4-yl)sulfonyl]piperazin-1-yl]pentyl]-2,5-dihydro-4-methyl-2,5-dioxo-1H-pyrrol-1-yl]-2-(trifluoromethyl)benzonitrile] | 42
8 | CC1=C(CCCCCCN2CCN(C(=O)COc3ccc(Cl)cc3)CC2)C(=O)N(c2ccc(C#N)c(C(F)(F)F)c2)C1=O [Example 264, 4-[3-[6-[4-[(4-Chlorophenoxy)acetyl]piperazin-1-yl]hexyl]-2,5-dihydro-4-methyl-2,5-dioxo-1H-pyrrol-1-yl]-2-(trifluoromethyl)benzonitrile] | 37
9 | CC1=C(CCCCCCN2CCN(C(=O)c3ccc(C#N)cc3)CC2)C(=O)N(c2ccc(C#N)c(C(F)(F)F)c2)C1=O [Example 268, 4-[3-[6-[4-(4-Cyanobenzoyl)piperazin-1-yl]hexyl]-2,5-dihydro-4-methyl-2,5-dioxo-1H-pyrrol-1-yl]-2-(trifluoromethyl)benzonitrile] | 73
10 | CC1=C(CCCCCCN2CCN(C(=O)CC(C)C)CC2)C(=O)N(c2ccc(C#N)c(C(F)(F)F)c2)C1=O [Example 270, 4-[2,5-Dihydro-3-methyl-4-[6-[4-(3-methyl-1-oxobutyl)piperazin-1-yl]hexyl]-2,5-dioxo-1H-pyrrol-1-yl]-2-(trifluoromethyl)benzonitrile] | 65
11 | CC1=C(CCCCCCN2CCN(S(C)(=O)=O)CC2)C(=O)N(c2ccc(C#N)c(C(F)(F)F)c2)C1=O [Example 296, 4-[2,5-Dihydro-3-methyl-4-[6-[4-(methylsulfonyl)piperazin-1-yl]hexyl]-2,5-dioxo-1H-pyrrol-1-yl]-2-(trifluoromethyl)benzonitrile] | 48

Source: patent US6861432B2, “Piperazine derivatives that destabilize androgen receptors” (Schering Aktiengesellschaft, priority 2001, dated 2005)
